Experimental findings from US10519193B2, “Steroidal compound, composition containing the same and use thereof” (Shenzhen TargetRx, Inc., priority 2016, dated 2019) are described below.

pIC50: −log10 of the molar value.

Data set [1] has as its system PSA protein secretion, LNcaP cells. Put plainly: Inhibition of cellular PSA protein secretion. It counts as cell-based. The note with it: Homo sapiens, 1 nM DHT, 48 hours, ELISA, read-out: Inhibition of PSA proteins, IC50. How it is done: Experimental steps: 1. The original culture medium was replaced with culture medium containing 10% Charcoal Stripped FBS, and cells were allowed to starve in culture flasks for 24 hours; 2. Cells were digested and counted, and LNcaP cells were seeded into 96-well plates at 10,000 cells/well and incubated overnight; 3. The DHT and compound were added to the existing medium at a set concentration, the final concentration of DHT was 1 nM, the initial concentration of the compound was 50000 nM, 5-fold dilution was carried out, 8 concentration gradients were obtained, and incubation was carried out for 48 hours; 4. Cell culture supernatants were collected and PSA protein levels were measured according to the ELISA kit instructions. IC50 was calculated using GraphPad Prism based on the inhibition rate at each concentration, and the results were shown in Table 2 below.

The target of data set [2] is T1, Human CYP17 (Homo sapiens, UniProt P05093).
T1 sequence (P05093 1-508): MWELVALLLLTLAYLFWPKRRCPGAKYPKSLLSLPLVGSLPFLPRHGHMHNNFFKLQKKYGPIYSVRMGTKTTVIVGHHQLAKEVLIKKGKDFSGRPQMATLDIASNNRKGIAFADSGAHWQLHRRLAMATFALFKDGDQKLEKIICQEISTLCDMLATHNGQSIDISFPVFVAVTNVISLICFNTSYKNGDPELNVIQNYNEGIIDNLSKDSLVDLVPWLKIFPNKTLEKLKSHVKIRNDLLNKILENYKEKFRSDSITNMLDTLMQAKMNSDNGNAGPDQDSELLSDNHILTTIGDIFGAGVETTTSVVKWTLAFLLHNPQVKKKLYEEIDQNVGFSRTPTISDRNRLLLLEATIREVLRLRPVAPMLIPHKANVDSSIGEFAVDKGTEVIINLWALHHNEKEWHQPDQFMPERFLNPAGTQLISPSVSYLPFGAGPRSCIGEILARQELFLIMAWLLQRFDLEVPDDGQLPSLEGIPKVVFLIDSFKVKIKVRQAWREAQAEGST
The data set can be described thus: CYP17 lyase assay. The arrangement: made in house; host or cells: HEK293 cells (microsomes). It counts as biochemical. To be noted: CYP17-HEK293 microsomes, 20 minutes at room temperature; read-out: CYP17 lyase IC50. How it is done: Human CYP17 was expressed in HEK293 cells and microsome were prepared, which was subsequently used as a source of enzyme for lyase assays. The reaction includes 200 nM [3H]-hydroxy pregnenolone (ARC), 200 nM 17-hydroxy pregnenolone (Sigma), 2 mM NADPH (Calbiochem), and CYP 17-HEK293 microsomes, which were incubated for 20 minutes at room temperature in the presence of DMSO or a test compound. Compounds were dissolved in DMSO and serially diluted. The reaction was stopped by the addition of 0.2N HCl and the product was captured using an anti-mouse YSi SPA Bead (GE) conjugated anti-DHEA monoclonal antibody (Abcam). The signal intensity determined by Packard Top Count was used to calculate the percent inhibition and IC50 values.

Data set [3] has as its target T1, Human CYP17. The data set can be described thus: CYP17 hydroxylase assay. It counts as biochemical. The arrangement: made in house; host or cells: E. coli (membrane preparation). The note with it: hCYP17 E. coli membrane, 25 μM pregnenolone, 37° C. 120 minutes; read-out: CYP17 hydroxylase IC50. How it is done: E. coli was transformed to express active human CYP17, and a membrane prepared from the transformed E. coli was used as a source of the enzyme. […] The reaction mixture was incubated at 37° C. for 120 minutes and 200 μL of 0.02 N HCl in acetonitrile was added to stop the reaction. The sample was then spun at […] and 200 μL of the supernatant was transferred to a clean tube for determination. The reaction product 17-alpha pregnenolone was measured by LC/MS.

Data set [4] is described as follows: Metabolic stability evaluation in human liver microsomes. It counts as in vitro ADME. To be noted: human liver microsome. How it is done:
Experiments in microsomes: Human liver microsomes: 0.5 mg/mL, Xenotech; Coenzyme (NADPH/NADH): 1 mM, Sigma Life Science; Magnesium chloride: 5 mM, 100 mM phosphate buffer (pH 7.4).
Preparation of stock solution: Powder of the example compound was accurately weighed and dissolved in DMSO to 5 mM.
Preparation of phosphate buffer (100 mM, pH7.4): A pre-formulated 0.5M potassium dihydrogen phosphate (150 mL) was mixed with 0.5M dibasic potassium phosphate (700 mL). The pH of the mixture was adjusted to 7.4 with 0.5M dibasic potassium phosphate solution. The mixture was diluted 5-fold with ultrapure water before use, and magnesium chloride was added to obtain a phosphate buffer (100 mM) containing 100 mM potassium phosphate, 3.3 mM magnesium chloride, pH 7.4.
A NADPH regeneration system solution (containing 6.5 mM NADP, 16.5 mM G-6-P, 3 U/mL G-6-P D, 3.3 mM magnesium chloride) was prepared and placed on wet ice prior to use.
Preparation of stop solution: acetonitrile solution containing 50 ng/mL propranolol hydrochloride and 200 ng/mL tolbutamide (internal standard). 25057.5 μL of phosphate buffer (pH 7.4) was taken into a 50 mL centrifuge tube, to which 812.5 μL human liver microsomes were added, and mixed to obtain a liver microsome dilution solution with a protein concentration of 0.625 mg/mL. 25057.5 μL of phosphate buffer (pH 7.4) was taken into a 50 mL centrifuge tube, to which 812.5 μL SD rat liver microsomes were added, and mixed to obtain a liver microsome dilution solution with a protein concentration of 0.625 mg/mL.
Incubation of the samples: The stock solution of the respective compound was respectively diluted to 0.25 mM with an aqueous solution containing 70% acetonitrile, and used as a working solution, ready for use. 398 μL of the dilution solution of human liver microsomes or rat liver microsome were added to a 96-well incubation plate (N=2), respectively, and 2 μL of 0.25 mM working solution was added and mixed.
Metabolic stability assay: 300 μL of pre-chilled stop solution was added to each well of a 96-well deep well plate and placed on ice as a stop plate. The 96 well incubation plate and NADPH regeneration system were placed in a 37° C. water bath box, shaken at 100 rpm and pre-incubated for 5 min. 80 μL of incubation solution was taken out from each well of the incubation plate and added to the stop plate, mixed, and replenished with 20 μL of NADPH regeneration system solution as a 0-min sample. 80 μL of NADPH regeneration system solution was added to each well of the incubation plate to start the reaction and start counting. […] Separately, 100 μL of the reaction solution was taken at 10, 30, and 90 min reaction, respectively, added to a stop plate, and vortexed for 3 minutes to terminate the reaction. The stop plate was centrifuged at 5000×g at 4° C. for 4 min. 100 μL of the supernatant was added to a 96-well plate to which 100 μL of distilled water was previously added, mixed, and analyzed by LC-MS/MS.
Data analysis: The peak areas of the corresponding compound and internal standard were detected by LC-MS/MS system, and the ratio of the peak area of the compound to the internal standard was calculated.
For orientation: Liver microsomes are vesicles of endoplasmic reticulum, rich in cytochrome P450 enzymes.

The mark [5] stands for this setting: human liver microsomes, pH 7.4, 1 μM compound, 0.5 mg/mL protein.

As a reminder, the pIC50 is the IC50 on a negative log10 scale, so that one unit is a factor of ten. As for `[2H]c1cncc(C2=CCC3C4CCC5=CC(=O)CC[C@]5(C)C4CC[C@]23C)c1` (stereo partly drawn) [Example 11, (3β)-17-(3-pyridyl-5-d)androst-4,16-dien-3-one], the pIC50 in data set [1] is > 8.00; on Human CYP17 [2] it was > 8.00; on Human CYP17 [3], > 7.70.
With `[2H]C1=C(c2cccnc2)[C@@]2(C)CCC3C(CCC4=CC(=O)CC[C@@]43C)C2C1` (stereo partly drawn) [Example 13, (3β)-17-(3-pyridyl)-16-d-androst-4,16-dien-3-one], the negative-log IC50 (pIC50) in data set [1] is > 8.00; at Human CYP17 [2] it was > 8.00; on Human CYP17 [3], > 7.70.
Usually half-life stands for how long it takes for the measured level to halve. In general, microsomal CLint refers to the capacity of the preparation to metabolise the compound, expressed as a volume cleared per time. As to `[2H]c1ccc(C2=CCC3C4CCC5=CC(=O)CC[C@]5(C)C4CC[C@]23C)cn1` (stereo partly drawn) [Example 12, (3β)-17-(3-pyridyl-6-d)androst-4,16-dien-3-one], the pIC50 in data set [1] is > 8.00. The pIC50 on Human CYP17 [2] is > 8.00. Besides, on Human CYP17 [3], the pIC50 was > 7.70. In data set [4] (in words), the “clearance compared to the non-deuterated compound” value is reported as “reduced” and the “half-life compared to the non-deuterated compound” value is “prolonged”. In data set [4] (setting [5]), the half-life at 1 μM came to 3.4 min and the microsomal CLint at 1 μM came to 408 µL/min/mg.
